Results published in BigSolDB 2.1.

Brc1c(Br)c(Br)c(Oc2c(Br)c(Br)c(Br)c(Br)c2Br)c(Br)c1Br
solubility (mole fraction)
Conditions	in THF	in acetone	in ethyl acetate	in limonene	in toluene
283 K	0.00449	4.4e-05	0.000133	0.00162	0.00274
293 K	0.00524	6e-05	0.000173	0.00242	0.00362
303 K	0.00607	9.1e-05	0.000252	0.00282	0.0052
313 K	0.00695	0.000119	0.000346	0.00397	0.00651
323 K	0.0085	0.000145	0.000455	0.00485	0.00771
